Source: PubChem BioAssay AID624129 (Sanford-Burnham Center for Chemical Genomics, 2012)
pIC50: −log10 of the molar value. Calls of active or inactive are those of the source. No rule for the calls is given here.

How the values were obtained:
Assay in all cases: CXCR6 receptor antagonists, dose response, cell-based, beta-arrestin, DiscoveRx, APJ panel, uHTS hits (AID 624129)
[1] = target: Apelin receptor (Homo sapiens) (UniProt P35414); details: CXCR6 beta-arrestin (DiscoveRx) antagonist cell assay, APJ
[2] = target: Beta-galactosidase (Escherichia coli) (UniProt Q8VNN2); details: CXCR6 beta-arrestin (DiscoveRx) antagonist cell assay, b-galactosidase
Sequence of Beta-galactosidase (Escherichia coli) (Q8VNN2 whole entry, looked up): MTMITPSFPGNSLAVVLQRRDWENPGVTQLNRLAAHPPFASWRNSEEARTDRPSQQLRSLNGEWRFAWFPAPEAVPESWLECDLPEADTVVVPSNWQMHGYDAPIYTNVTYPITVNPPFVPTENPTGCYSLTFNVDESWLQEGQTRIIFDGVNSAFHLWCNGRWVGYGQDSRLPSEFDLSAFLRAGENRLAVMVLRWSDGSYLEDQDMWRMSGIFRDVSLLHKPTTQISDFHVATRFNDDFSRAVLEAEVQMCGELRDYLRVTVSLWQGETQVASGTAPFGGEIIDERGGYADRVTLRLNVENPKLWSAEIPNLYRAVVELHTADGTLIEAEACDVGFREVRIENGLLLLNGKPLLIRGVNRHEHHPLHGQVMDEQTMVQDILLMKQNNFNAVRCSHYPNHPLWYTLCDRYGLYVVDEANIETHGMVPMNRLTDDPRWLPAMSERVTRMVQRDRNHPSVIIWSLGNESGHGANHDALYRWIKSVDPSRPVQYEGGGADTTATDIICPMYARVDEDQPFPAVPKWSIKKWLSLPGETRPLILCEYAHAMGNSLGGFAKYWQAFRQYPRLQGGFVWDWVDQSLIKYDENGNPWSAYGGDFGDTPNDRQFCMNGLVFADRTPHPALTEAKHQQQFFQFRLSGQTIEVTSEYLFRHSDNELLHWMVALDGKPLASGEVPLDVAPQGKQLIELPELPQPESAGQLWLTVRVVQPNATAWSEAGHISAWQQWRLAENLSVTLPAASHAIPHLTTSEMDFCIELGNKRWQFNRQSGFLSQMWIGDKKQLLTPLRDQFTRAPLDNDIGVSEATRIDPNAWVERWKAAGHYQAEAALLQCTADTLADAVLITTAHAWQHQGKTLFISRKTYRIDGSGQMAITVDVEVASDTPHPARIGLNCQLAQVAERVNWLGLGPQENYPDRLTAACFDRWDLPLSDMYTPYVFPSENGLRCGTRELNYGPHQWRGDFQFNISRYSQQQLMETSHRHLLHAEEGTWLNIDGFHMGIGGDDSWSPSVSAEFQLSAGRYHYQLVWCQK

[3] = target: C-C chemokine receptor type 6 (Homo sapiens) (UniProt P51684); details: CXCR6 beta-arrestin (DiscoveRx) antagonist cell assay
[4] = target: C-X-C chemokine receptor type 6 (Homo sapiens) (UniProt O00574); details: CXCR6 beta-arrestin (DiscoveRx) antagonist cell assay; for inhibition: CXCR6, run 1, dose range 2, at 80 µM (top of the series)
Sequence of C-X-C chemokine receptor type 6 (Homo sapiens) (O00574 whole entry, looked up): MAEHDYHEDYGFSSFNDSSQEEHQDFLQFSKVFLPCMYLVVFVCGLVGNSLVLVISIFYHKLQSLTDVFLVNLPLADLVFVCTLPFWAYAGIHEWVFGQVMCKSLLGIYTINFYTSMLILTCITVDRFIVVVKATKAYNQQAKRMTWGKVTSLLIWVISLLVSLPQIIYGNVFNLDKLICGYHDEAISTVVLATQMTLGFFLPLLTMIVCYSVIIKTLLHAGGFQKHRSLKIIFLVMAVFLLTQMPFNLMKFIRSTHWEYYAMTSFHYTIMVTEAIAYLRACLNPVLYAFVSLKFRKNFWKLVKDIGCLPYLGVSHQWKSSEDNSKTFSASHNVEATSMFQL

[5] = dose range 1, mean IC50 across replicates
[6] = CCR6, dose range 1, mean IC50 across replicates
[7] = CXCR6, dose range 1, mean IC50 across replicates

Row | Compound | pIC50 ([1]; dose range 1) | pIC50 [1, 5] | pIC50 ([1]; run 2, dose range 1) | pIC50 ([1]; run 3, dose range 1) | IC50 ([2]; dose range 1) | pIC50 [2, 5] | pIC50 ([3]; CCR6, dose range 1) | pIC50 [3, 6] | pIC50 ([3]; CCR6, run 2, dose range 1) | pIC50 ([4]; CXCR6, dose range 1) | pIC50 [4, 7] | pIC50 ([4]; CXCR6, run 1, dose range 2) | pIC50 ([4]; CXCR6, run 2, dose range 1) | pIC50 ([4]; CXCR6, run 2, dose range 2) | IC50 ([4]; CXCR6, dose range 1) | inhibition [4] | pIC50 ([2]; dose range 1)
1 | COc1ccc(C(=O)N/N=C(\C)c2ccccn2)cc1OC | 5.74 | 5.62 | 5.61 | 5.54 | > 80 µM (inactive) | < 4.10 | 5.69 | 5.62 | 5.57 | 5.59 | 5.70 | 5.78 | 5.58 | 5.94 |  |  | 
2 | C/C(=N\NC(=O)C(C)Oc1ccc([N+](=O)[O-])cc1)c1ccccn1 (stereo unspecified) | 5.46 | 5.09 | 5.47 | 4.76 | > 80 µM (inactive) | < 4.10 | 5.58 | 5.51 | 5.44 | 5.21 | 5.41 | 5.56 | 5.35 | 5.65 |  |  | 
3 | COc1ccc(/C=C/c2ccc3cccc(O)c3n2)c(OC)c1OC | 5.31 | 5.16 | 5.05 | 5.16 | > 80 µM (inactive) | < 4.10 | 5.43 | 5.51 | 5.61 | 5.30 | 5.39 | 5.46 | 5.29 | 5.54 |  |  | 
4 | C/C(=N\NC(=O)c1ccc(F)cc1)c1ccccn1 | 6.07 | 6.00 | 5.86 | 6.10 | > 80 µM (inactive) | < 4.10 | 6.01 | 5.92 | 5.85 | 5.81 | 5.94 | 6.06 | 5.86 | 6.11 |  |  | 
5 | C=C1C(=O)C23C(O)C1CCC2C12CCCC(C)(COC(C)=O)C1C(O)C3(O)OC2 (stereo unspecified) | 5.05 | 5.06 | 5.12 | 5.02 | > 80 µM (inactive) | < 4.10 | 5.29 | 5.25 | 5.22 | 5.18 | 5.20 | 5.19 | 5.20 | 5.24 |  |  | 
6 | CCC(=O)OCOc1ccc(/C=C2/CCC(CN(C)C)C2=O)cc1 (stereo unspecified) | 4.76 | 4.77 | 4.82 | 4.75 | > 80 µM (inactive) | < 4.10 | 4.99 | 4.95 | 4.93 |  | 4.90 |  | 4.99 |  | inactive | 124% | 
7 | Cc1c(Cl)sn(-c2ccc(Cl)cc2)c1=O | 4.79 | 4.64 | 4.84 | 4.43 | > 80 µM (inactive) | < 4.10 | 5.49 | 5.43 | 5.38 | 5.05 | 5.03 | 4.95 | 5.10 | 5.03 |  |  | 
8 | CN(C(=O)CSC1=Nc2ccccc2C2=NC(c3ccccc3)C(=O)N12)C1CCCCC1 (stereo unspecified) |  | < 4.10 | < 4.10 | < 4.10 | > 80 µM (inactive) | < 4.10 |  | < 4.10 | < 4.10 |  | < 4.10 |  | < 4.10 |  | > 80 µM (inactive) | -15.6% | 
9 | COc1ccc(N2C(=O)CC(Sc3nnnn3-c3ccc(F)cc3)C2=O)cc1 (stereo unspecified) | 5.00 | 5.00 | < 4.10 | < 4.10 | > 80 µM (inactive) | < 4.10 | 5.08 | 5.02 | 4.97 |  | < 4.10 |  | < 4.10 |  | > 80 µM (inactive) | -50.3% | 
10 | CCCCCCN1C=C/C(=C\C=C(C#N)C#N)c2ccccc21 | 4.57 | 4.45 | 4.28 | 4.57 | > 80 µM (inactive) | < 4.10 | 4.63 | 4.70 | 4.79 |  | 4.37 |  | 4.36 |  | inactive | 158% | 
11 | NNc1nc(-c2ccccc2)cc(-c2ccccc2O)n1 | 5.24 | 5.07 | 5.01 | 5.00 | > 80 µM (inactive) | < 4.10 | 5.11 | 5.14 | 5.17 | 5.02 | 5.16 | 5.44 | 5.10 | 5.20 |  |  | 
12 | CC(=O)OCCNc1cc(Sc2nc3ccccc3[nH]2)c2nonc2c1[N+](=O)[O-] | 5.01 | 5.09 | 5.14 | 5.12 |  | 4.53 | 5.26 | 5.27 | 5.29 | 5.20 | 5.19 | 5.13 | 5.22 | 5.22 |  |  | 4.53
13 | COc1ccc(C(=O)/C=C/C(=O)N(CC(=O)NC2CCCCC2)CC2CCCO2)c(O)c1 (stereo unspecified) |  | < 4.10 | < 4.10 | < 4.10 | > 80 µM (inactive) | < 4.10 |  | < 4.10 | < 4.10 |  | < 4.10 |  | < 4.10 |  | > 80 µM (inactive) | -34.5% | 
14 | CCC(=O)OCCNc1cc(Sc2nccn2C)c2nonc2c1[N+](=O)[O-] | 5.13 | 5.22 | 5.33 | 5.22 | > 80 µM (inactive) | < 4.10 | 5.46 | 5.41 | 5.37 | 5.37 | 5.33 | 5.30 | 5.32 | 5.33 |  |  | 
15 | Cc1ccsc1/C=C/c1ccc2cccc(O)c2n1 | 5.17 | 5.11 | 5.01 | 5.17 | > 80 µM (inactive) | < 4.10 | 5.28 | 5.19 | 5.11 | 5.20 | 5.26 | 5.51 | 5.06 | 5.42 |  |  | 
16 | COc1ccc(C2CC(c3c(O)n(CCc4ccccc4)c(=O)[nH]c3=O)=NN2)cc1OC (stereo unspecified) | 4.98 | 4.84 | 4.66 | 4.98 | inactive | 4.28 | 4.83 | 4.74 | 4.67 |  | 4.85 | 5.20 | 4.65 | 5.06 | inactive |  | 
17 | COc1ccc(OC)c2sc(N(CCCN(C)C)C(=O)CCS(=O)(=O)c3ccccc3)nc12 | 4.66 | 4.71 | 4.74 | 4.72 | > 80 µM (inactive) | < 4.10 | 4.98 | 4.95 | 4.91 |  | 4.90 |  | 4.98 |  | inactive | 114% | 
18 | CC(=NNc1nc2ccccc2s1)c1ncccn1 | 4.77 | 4.76 | 4.69 | 4.83 | > 80 µM (inactive) | < 4.10 | 5.12 | 5.05 | 4.99 |  | 4.95 |  | 4.98 |  | inactive | 125% | 
19 | CC(=O)Nc1ccc(Sc2ccc([N+](=O)[O-])o2)cc1 | 4.85 | 4.84 | 4.81 | 4.87 | > 80 µM (inactive) | < 4.10 | 5.04 | 5.05 | 5.07 | 4.86 | 4.97 | 5.04 | 5.05 | 4.95 |  |  | 
20 | C=C1C(=O)[C@]23C[C@H]1CCC2[C@@]1(C)C(C[C@@H]3O)[C@](C)(C(=O)OC)CC[C@@H]1OC(C)=O (stereo partly specified) | 5.02 | 4.67 | 5.06 | 4.34 | > 80 µM (inactive) | < 4.10 | 5.38 | 5.33 | 5.28 | 5.15 | 5.15 | 5.06 | 5.27 | 5.16 |  |  | 
21 | CN(C)c1nc(=NCc2cccs2)ss1 | 5.43 | 5.43 | < 4.10 | 5.44 | > 80 µM (inactive) | < 4.10 | 5.44 | 5.63 | 5.97 | 5.30 | 5.27 |  | 5.23 |  |  | 53% | 
22 | N=C1S/C(=C\c2ccco2)C(=O)N1c1nccs1 | 5.07 | 4.98 | 4.91 | 4.97 | > 80 µM (inactive) | < 4.10 | 5.09 | 5.07 | 5.05 | 4.98 | 5.05 | 5.19 | 5.02 | 5.02 |  |  | 
